# Laboratory results as given in US7119256B2, “Gene encoding acetolactate synthase” (priority 2000, dated 2006).
# Tests used:
# [1] = target: T1, mutant ALS protein (Oryza sativa subsp. japonica, UniProt Q6K2E8, S627I/W548L); assay: Herbicide sensitivity of crude mutant ALS (W548L and S627I) expressed in E. coli, in presence of valine; assay type: biochemical, rice; parameters: the cDNA containing a full length mutant ALS gene could be obtained; made in house; host or cells: E. coli JM 105, pGEX-4T-3; crude enzyme solution; conditions: crude enzyme from E. coli, valine added
# T1 sequence (Q6K2E8 44-644 W548L/S627I): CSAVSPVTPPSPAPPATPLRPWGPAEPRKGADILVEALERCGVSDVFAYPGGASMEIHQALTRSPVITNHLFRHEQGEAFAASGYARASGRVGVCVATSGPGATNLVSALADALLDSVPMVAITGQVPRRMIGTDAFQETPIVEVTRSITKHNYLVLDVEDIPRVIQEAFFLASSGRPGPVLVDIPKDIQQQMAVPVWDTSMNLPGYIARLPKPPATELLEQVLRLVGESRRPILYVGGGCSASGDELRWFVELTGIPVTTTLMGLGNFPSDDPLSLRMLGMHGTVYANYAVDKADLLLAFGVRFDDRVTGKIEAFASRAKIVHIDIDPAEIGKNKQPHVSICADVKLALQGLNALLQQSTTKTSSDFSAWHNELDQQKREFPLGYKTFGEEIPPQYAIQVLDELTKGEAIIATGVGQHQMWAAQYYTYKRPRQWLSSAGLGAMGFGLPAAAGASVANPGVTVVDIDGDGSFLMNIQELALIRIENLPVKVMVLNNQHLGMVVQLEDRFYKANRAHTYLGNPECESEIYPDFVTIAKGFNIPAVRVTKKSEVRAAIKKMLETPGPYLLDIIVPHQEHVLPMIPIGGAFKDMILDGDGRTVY
# Experimental: Preparation and purification of ALS from E. coli were performed by the following method. First, a pellet of the transformant E. coli stored at −80° C. was suspended in ALS extraction buffer (potassium phosphate buffer (pH 7.5) containing 30% glycerol and 0.5 mM MgCl2). Specifically, 2.5 ml of the buffer was added to the pellet obtained from 50 ml of the culture solution. The suspension was subjected to ultrasonication (Heat Systems-Ultrasonics, Sonicator W-225R, micro chip, output control 8, interval of approximately 1 sec, twice (40 sec each)), and subjected to centrifugation at 15000×g, 4° C. for 20 min, thereby obtaining the supernatant as a crude enzyme solution.
# Herbicide sensitivity of mutant ALS protein was examined using the crude enzyme solution obtained in Example 4. Herbicide sensitivity test was performed in the manner same as that in Example 2. In the herbicide sensitivity test, three herbicides, bispyribac-sodium, pyrithiobac-sodium, and pyriminobac were used as PC herbicides; four drugs, chlorsulfuron, bensulfuron-methyl, pyrazosulfuron-ethyl and imazosulfuron were used as sulfonylurea herbicides; and two drugs, imazaquin, and imazapyr were used as imidazolinon herbicides.
# Solutions containing these herbicides at certain concentrations (bispyribac-sodium and pyrithiobac-sodium were aqueous solutions, others were acetone solutions) were added to reaction solutions before addition of the mutant ALS protein. The final concentration of acetone was 1%. In addition, since an ALS protein from the rice cDNA expressed within E. coli is insusceptible to valine (Kil et al., J. Biochem. Mol. Biol. 31 287–295, 1998), a herbicide sensitivity test was performed under conditions in which ALS activity derived from E. coli was inhibited with valine.
# [2] = target: T1, mutant ALS protein; assay: Herbicide sensitivity of ALS partially purified from the resistant mutant (acetoin colorimetric ALS activity); assay type: biochemical, rice (Kinmaze); parameters: from tissue; host or cells: resistant mutant rice (Kinmaze) cultured cells, liquid culture; ammonium sulfate, Sephadex G-25, HiTrap Q
# Experimental: First, 200 g or more of resistant mutant was prepared by a liquid culture method (no supplementation with bispyribac-sodium), the culture having a composition as shown in Table 1 but without Gelrite. Then, about 150 g of the resistant mutant was homogenized using Hiscotron in a volume of buffer-1 [100 mM potassium phosphate buffer (pH 7.5) containing 20% (v/v) glycerol, 0.5 mM thiamin pyrophosphate (TPP), 10 μM flavin adenine dinucleotide (FAD), 0.5 mM MgCl2, and a volume of polyvinyl polypyrrolidone one-tenth that of tissue volume] 3-fold greater than tissue volume. The homogenate was filtered through nylon gauze, and then centrifuged at 15,000×g for 20 min. Ammonium sulfate was added to the centrifuged supernatant to 50% saturation, and then allowed to stand in ice for approximately 1 hour. The mixture was again centrifuged at 15,000×g for 20 min, and then the precipitated fraction was dissolved in about 30 ml of buffer-2 [10 mM Tris hydrochloric acid buffer (pH 7.5) containing 20% (v/v) glycerol, 0.5 mM TPP and 0.5 mM MgCl2]. […]
# Next, the protein concentration of the crude enzyme solution was measured by the Bradford method according to the manual of Bio-Rad Protein Assay. […]
# ALS activity resulting from the mutant ALS protein contained in the eluted fractions apportioned into each test tube for apportion was measured as follows. A reaction solution to be used in a measurement reaction was prepared by mixing an eluted fraction to be measured with a solution comprising 20 mM sodium pyruvate, 0.5 mM TPP, 0.5 mM MgCl2, 10 μM FAD and 20 mM potassium phosphate buffer (pH 7.5). […] After the eluted fraction to be measured was added, the measurement reaction was performed at 30° C. for 40 to 60 min. […]
# Then, to quantify acetoin contained in the reaction solution, 1 ml of 0.5% (w/v) creatine and 1 ml of 5% (w/v) α-naphthol dissolved in 2.5 N sodium hydroxide was added to the reaction solution, followed by incubation at 37° C. for 10 min. Acetoin was then quantified by color comparison of the absorbance (at 525 nm) of the reaction solution, thereby evaluating ALS activity. […]
SMILES,mutant ALS activity in the presence of herbicide [1],resistance of the mutant ALS protein to herbicide compared to wild type ALS protein [1],IC50 [2] [nM]
"COc1cc(OC)nc(Oc2cccc(Oc3nc(OC)cc(OC)n3)c2C(=O)[O-])n1.[Na+] [Bispyribac-sodium, bispyribac-sodium]",not inhibited at all,best resistance,421
"COc1nc(C)nc(NC(=O)NS(=O)(=O)c2ccccc2Cl)n1 [Chlorsulfuron, chlorsulfuron]",–,moderate,92.8
